Assay [1] has as its system B16-F10. Briefly: Induction apoptosis in mouse B16-F10 cells assessed as increase in apoptotic cells at IC50 to IC80 concentration after 48 to 72 hrs by AnnexinV/propidium iodide staining based flow cytometric analysis. Particulars: time 48-72 hrs, DDE = dose-dependent effect. Format: functional, cell-based. (In flow cytometry, cells or beads pass a laser one at a time.)

The subject of assay [2] is B16-F10. Briefly: Induction apoptosis in mouse B16-F10 cells assessed as viable cells at IC80 concentration after 72 hrs by AnnexinV/propidium iodide staining based flow cytometric analysis (reference value: 87.8%). The format is functional.
The subject of assay [3] is RAW264.7. Briefly: Anti-inflammatory activity against mouse RAW264.7 cells assessed as inhibition of LPS-induced NO production at 0.25 times of IC50 concentration after 24 to 72 hrs by griess reagent assay relative to control. Format: functional, cell-based. Particulars: time 24-72 hrs. A general note: Griess reagent forms a coloured azo dye with nitrite.
In assay [4] the test system is B16-F10. The assay is described as follows: Induction apoptosis in mouse B16-F10 cells assessed as early apoptotic cells at IC50 concentration after 72 hrs by AnnexinV/propidium iodide staining based flow cytometric analysis (reference value: 0.1%). The format is functional.
Assay [5] has as its system HepG2. The assay is described as follows: Antiproliferative activity against human HepG2 cells assessed as reduction in cell viability after 72 hrs by MTT assay. Format: functional, cell-based.
Assay [6] concerns RAW264.7. Briefly: Inhibition of LPS-induced cell differentiation in mouse RAW264.7 cells at 0.25 to 0.75 IC50 concentration after 72 hrs by propidium iodide staining based flow cytometric analysis. The format is functional. Particulars: DDE = dose-dependent effect.
Assay [7] deals with B16-F10. Briefly: Induction of cell cycle arrest in mouse B16-F10 cells assessed as cells accumulation at G2/M phase at IC80 concentration after 72 hrs by propidium iodide staining based flow cytometric analysis (reference value: 3.16%). The format is functional.
A short description of assay [8]: Inhibition of LPS-induced cell cycle arrest in mouse RAW264.7 cells assessed as cell accumulation at G0/G1 phase at 0.25 to 0.75 IC50 concentration after 72 hrs by propidium iodide staining based flow cytometric analysis relative to control. The format is functional. More on the design: scale not given: the % may be the effect or the level left.
Assay [9] can be described thus: Inhibition of LPS-induced cell cycle arrest in mouse RAW264.7 cells assessed as cell accumulation at G2/M phase at 0.25 to 0.75 IC50 concentration after 72 hrs by propidium iodide staining based flow cytometric analysis relative to control. The format is functional. On the set-up: scale not given: the % may be the effect or the level left.
In assay [10] the test system is B16-F10. The assay is described as follows: Induction apoptosis in mouse B16-F10 cells assessed as necrotic cells at IC80 concentration after 48 hrs by AnnexinV/propidium iodide staining based flow cytometric analysis (reference value: 8.2%). Format: functional.
In assay [11] the test system is B16-F10. Briefly: Induction apoptosis in mouse B16-F10 cells assessed as viable cells at IC50 concentration after 48 hrs by AnnexinV/propidium iodide staining based flow cytometric analysis (reference value: 86.9%). Format: functional.
Assay [12] concerns B16-F10. The assay is described as follows: Induction of cell cycle arrest in mouse B16-F10 cells assessed as cells accumulation at S phase at IC50 concentration after 72 hrs by propidium iodide staining based flow cytometric analysis (reference value: 39.21%). The format is functional.
The test system of assay [13] is B16-F10. The assay is described as follows: Induction apoptosis in mouse B16-F10 cells assessed as necrotic cells at IC50 concentration after 48 hrs by AnnexinV/propidium iodide staining based flow cytometric analysis (reference value: 8.2%). Format: functional.
Assay [14] has as its system B16-F10. The assay is described as follows: Induction apoptosis in mouse B16-F10 cells assessed as necrotic cells at IC50 concentration after 72 hrs by AnnexinV/propidium iodide staining based flow cytometric analysis (reference value: 9.9%). The format is functional.
Assay [15] deals with B16-F10. The assay is described as follows: Induction of cell cycle arrest in mouse B16-F10 cells assessed as cells accumulation at G2/M phase at IC50 concentration after 72 hrs by propidium iodide staining based flow cytometric analysis (reference value: 3.16%). The format is functional.
The test system of assay [16] is RAW264.7. The assay is described as follows: Anti-inflammatory activity against mouse RAW264.7 cells assessed as inhibition of LPS-induced NO production after 24 hrs by griess reagent assay. Format: functional, cell-based. Particulars: RAW264.7, 24 h.
Assay [17] concerns Plasmodium falciparum. The assay is described as follows: Antimalarial activity against Plasmodium falciparum FCR-3/A2 erythrocytic stage infected in human erythrocytes assessed as reduction in parasite growth after 48 hrs by Giemsa staining based assay. Format: functional, organism-based. Particulars: FCR-3/A2, Erythrocyte.
Assay [18] relates to HT-29. Briefly: Antiproliferative activity against human HT-29 cells assessed as reduction in cell viability after 72 hrs by MTT assay. Format: functional, cell-based. Particulars: HT-29, 72 h. On the technique in general: Tetrazolium assays rely on reduction of a dye to a coloured formazan, in cell work by metabolically active cells.
The nature of assay [19]: Inhibition of LPS-induced cell cycle arrest in mouse RAW264.7 cells assessed as cell accumulation at S phase at 0.25 to 0.75 IC50 concentration after 72 hrs by propidium iodide staining based flow cytometric analysis relative to control. The format is functional. On the set-up: scale not given: the % may be the effect or the level left.
Assay [20] has as its system B16-F10. The assay is described as follows: Induction apoptosis in mouse B16-F10 cells assessed as viable cells at IC80 concentration after 48 hrs by AnnexinV/propidium iodide staining based flow cytometric analysis (reference value: 86.9%). Format: functional.
The subject of assay [21] is RAW264.7. Briefly: Anti-inflammatory activity against mouse RAW264.7 cells assessed as inhibition of LPS-induced NO production after 48 hrs by griess reagent assay. The format is functional, cell-based. Particulars: RAW264.7, 48 h.

The IC80 is the concentration at which the effect reaches the 80% level. Usually IC50 stands for the midpoint of a concentration-inhibition curve.

Activity calls are given as the source filed them. The calls are words filed in the database; no cut-off is given here.

Turning to `COC(=O)[C@]1(C)CCC[C@@]2(C)[C@H]1CC=C1C(C)=C(C(C)C)C(=O)C[C@@H]12`, the Activity entry is “Dde” in assay [1]; 47.5% in [2]; 0.1% in assay [4]; 1.22% in assay [7]; 68% in assay [8]; 0.3% in [9]. For the same compound, the Activity in [10] was 2.8%; in assay [11], 84.1%; in assay [12], 38.83%; in assay [13], 2.7%; in assay [14] it was 3.8%; in assay [15], 1.12%. Moreover, in assay [3], the inhibition entry is “Active”. The IC80 in assay [5] worked out at 72.4 µM. Besides, the inhibition result in assay [6] was “Dde”.

Take `CC(=O)O[C@H]1CCC(C)(C)[C@]2(O)[C@@H](OC(C)=O)[C@@H]3OC(=O)[C@@H]4c5ccoc5C[C@@H]([C@@H]34)[C@@]12C` [CAESALPININ D]: the IC50 in assay [16] was found to be 25.4 µM.

Take `CC(=O)O[C@H]1[C@@H]2OC(=O)[C@@H]3c4ccoc4C[C@@H]([C@@H]23)[C@@]2(C)[C@@H](O)CCC(C)(C)[C@]12O`: the IC50 in assay [16] is 25.4 µM.

For `COC(=O)[C@]1(C)CCC[C@]2(C)c3cc4c(c(C)c3CC[C@@H]12)CC(=O)O4`, in assay [3], the inhibition result is “Active”.

With `COC(=O)[C@]1(C)CCC[C@]2(C)c3cc(O)c(CO)c(C)c3CC[C@@H]12`, the inhibition entry in [3] is “Active”.

On to `CC(=O)O[C@H]1CC(C)(C)[C@]2(O)CCc3c(cc(O)c(C=O)c3C)[C@@]2(C)[C@H]1OC(C)=O` [NORCAESALPININ C], for which the IC50 in assay [17] came to 5 µM.

Turning to `COC(=O)[C@]1(C)CCC[C@]2(C)c3cc(O)c(C(C)C)c(C)c3CC[C@@H]12`, in assay [18], the IC50 was determined as 222 µM. For the same compound, the inhibition entry in assay [3] is “Active”.

`COC(=O)[C@]1(C)CCC[C@]2(C)c3cc(O)c(C=O)c(C)c3CC[C@@H]12`: the Activity entry in [1] was “Dde”; in assay [2], 57.9%; in assay [19], 69%; in [7], 0%; in assay [8], 68%; in assay [9], 0.3%. The Activity is listed as 2.2% in assay [10]; 64.9% in assay [20]; 2.8% in assay [13]; 0.9% in assay [14]; 0.18% in assay [15]. The inhibition entry in assay [3] is “Active”. For the same compound, in [6], the inhibition entry was “Dde”.

Consider `C[C@H]1c2ccoc2C[C@H]2[C@H]1[C@H]1O[C@H]1[C@@]1(O)C(C)(C)[C@@H](OC(=O)c3ccccc3)CC[C@]21C`, for which, in assay [21], the IC50 amounted to 2.9 µM.

Values taken from ChEMBL document CHEMBL5126639, “Semisynthesis and Evaluation of Anti-Inflammatory Activity of the Cassane-Type Diterpenoid Taepeenin F and of Some Synthetic Intermediates” (J Nat Prod, 2022).
